Measured values from US7378445B2, “Treatment of prostate cancer” (Peplin Research Pty. Ltd., priority 2000, dated 2008).

Tests used:
Type in all cases: cell-based
[1] = system: DU145 prostate cancer cells; test: Combination with chemotherapeutic agents, cytotoxicity (3H-thymidine incorporation); conditions: 24 hr treatment, then five days growth; for cytotoxicity of combination with cisplatin compared to additive cytotoxicity: FIGS. 6A, 6B, 6E; for cytotoxicity of combination with SBHA compared to additive cytotoxicity: FIGS. 6C, 6D
Procedure: The prostate cancer cells were treated with (A) PEP006 and cisplatin, (B) PEP008 and cisplatin, (C) PEP005 and SBHA, (D) PEP008 and SBHA and (E) PEP005 and cisplatin for 24 hr after which the medium was changed and the cells permitted to grow in the presence of ^3H-thymidine for five days. The percentage cell survival was determined by measuring the incorporation of ^3H-thymidine in the cells.

[2] = system: MM96L human melanoma cells; test: Killing by untreated leukocytes of drug-pretreated tumor cells ([3H]-thymidine); conditions: target cells pretreated with 60 ng/mL for 20 hr, washed; 48 hr with human leukocytes; 100:1 ratio of effector:target cells
Procedure: (§1) The question of whether drug treatment of the target tumor cells causes them to become susceptible to effector cells of the immune system was addressed as follows.
(§2) Leukocytes obtained by lysis of human peripheral blood were added to 5000 MM96L human melanoma cells or 7000 neonatal foreskin fibroblasts per microtitre well at effector: target ratios of 1000, 100 and 10:1. The target cells had been treated with 60 ng/mL PEP008 for 20 hr beforehand, and washed and the medium replaced before the leukocytes were added. After 48 hr incubation with the leukocytes the cultures were washed and labelled with [3H]-thymidine for 2 hr. […] Untreated leukocytes had no effect on cell survival.

[3] = system: neonatal foreskin fibroblasts; test: Killing by untreated leukocytes of drug-pretreated normal cells ([3H]-thymidine); conditions: target cells pretreated with 60 ng/mL for 20 hr, washed; 48 hr with human leukocytes; 100:1 ratio of effector:target cells
Procedure: as §1, §2

Row | SMILES | cytotoxicity of combination with cisplatin compared to additive cytotoxicity [1] | cytotoxicity of combination with SBHA compared to additive cytotoxicity [1] | survival of melanoma cells [2] | survival of normal fibroblasts [3]
1 | C/C=C(/C)C(=O)O[C@H]1C(C)=C[C@]23C(=O)[C@@H](C=C(CO)[C@@H](O)[C@]12O)[C@H]1[C@@H](C[C@H]3C)C1(C)C [PEP005, Ingenol-3-angelate] | synergistic combinations | synergistic combinations | – | –
2 | C/C=C(/C)C(=O)O[C@H]1C(C)=C[C@]23C(=O)[C@H](C=C(C)[C@@H](O)[C@]12O)[C@H]1[C@@H](C[C@H]3C)C1(C)C [PEP006, 20-deoxy-Ingenol-3-angelate] | synergistic combinations | – | – | –
3 | C/C=C(/C)C(=O)O[C@H]1C(C)=C[C@]23C(=O)[C@@H](C=C(COC(C)=O)[C@@H](O)[C@]12O)[C@H]1[C@@H](C[C@H]3C)C1(C)C [PEP008, 20-O-acetyl-ingenol-3-angelate] | synergistic combinations | synergistic combinations | 12% | 100%
